Results on 3 molecules are retold here after ChEMBL document CHEMBL1128467, “Novel, potent, and selective 5-HT3 receptor antagonists based on the arylpiperazine skeleton: synthesis, structure, biological activity, and comparative molecular field analysis studies” (J Med Chem, 1995).

Experiment [1] concerns the target T1, 5-hydroxytryptamine receptor 1A (Rattus norvegicus, UniProt P19327).
T1 sequence (P19327 whole entry): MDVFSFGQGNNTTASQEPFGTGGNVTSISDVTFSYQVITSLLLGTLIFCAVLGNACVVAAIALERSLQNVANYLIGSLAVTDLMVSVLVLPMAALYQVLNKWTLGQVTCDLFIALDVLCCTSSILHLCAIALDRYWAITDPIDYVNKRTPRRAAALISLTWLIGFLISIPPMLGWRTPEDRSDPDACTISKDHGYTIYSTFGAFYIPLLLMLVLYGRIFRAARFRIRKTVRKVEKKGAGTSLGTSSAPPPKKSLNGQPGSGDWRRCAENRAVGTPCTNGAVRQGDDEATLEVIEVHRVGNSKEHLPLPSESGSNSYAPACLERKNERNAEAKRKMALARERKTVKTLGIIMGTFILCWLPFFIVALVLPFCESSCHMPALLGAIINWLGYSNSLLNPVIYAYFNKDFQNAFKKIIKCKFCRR
Type of experiment: tissue-based, Hippocampus.

Experiment [2] concerns the target T2, 5-hydroxytryptamine receptor 1B (Rattus norvegicus, UniProt P28564). Put plainly: The compound was tested for their binding affinity towards 5-hydroxytryptamine 1B receptor from rat striatum using [3H]5-HT as radioligand; Nonactive at 10 uM.
For experiment [3], the target named is T3, 5-hydroxytryptamine receptor 2A (Rattus norvegicus, UniProt P14842). Put plainly: The compound was tested for its binding affinity towards 5-hydroxytryptamine 2A receptor from rat cortex using [3H]-ketanserin as radioligand; Nonactive at 10 uM.
For experiment [4], the target named is T2, 5-hydroxytryptamine receptor 1B. Format: tissue-based, Striatum.
Experiment [5] has as its target T3, 5-hydroxytryptamine receptor 2A. Conditions: read-out: Ki; call rule not given here.
For experiment [6], the target named is 5-hydroxytryptamine receptor 4 (Cavia porcellus, UniProt O70528). Put plainly: The compound was tested for their binding affinity towards 5-hydroxytryptamine 4 receptor from guinea pig striatum using [3H]GR-113808 as radioligand.
Experiment [7] deals with T4, Serotonin 3 (5-HT3) receptor (Rattus norvegicus, UniProt P35563+Q9JJ16).
T4 sequence (P35563 whole entry): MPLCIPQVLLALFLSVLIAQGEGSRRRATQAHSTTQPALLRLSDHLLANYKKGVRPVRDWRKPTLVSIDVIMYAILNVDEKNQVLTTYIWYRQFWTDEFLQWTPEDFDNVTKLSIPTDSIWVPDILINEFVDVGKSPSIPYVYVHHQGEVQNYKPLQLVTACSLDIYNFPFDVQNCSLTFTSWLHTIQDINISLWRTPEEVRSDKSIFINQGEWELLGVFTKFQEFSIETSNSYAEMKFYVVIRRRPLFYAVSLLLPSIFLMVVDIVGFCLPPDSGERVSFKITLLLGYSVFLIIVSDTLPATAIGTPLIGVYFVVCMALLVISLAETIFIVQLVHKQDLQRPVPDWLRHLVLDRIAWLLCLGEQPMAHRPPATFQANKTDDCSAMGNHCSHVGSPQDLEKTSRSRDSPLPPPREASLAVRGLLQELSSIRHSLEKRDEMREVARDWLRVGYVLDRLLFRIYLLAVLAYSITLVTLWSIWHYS
T4 sequence (Q9JJ16 whole entry): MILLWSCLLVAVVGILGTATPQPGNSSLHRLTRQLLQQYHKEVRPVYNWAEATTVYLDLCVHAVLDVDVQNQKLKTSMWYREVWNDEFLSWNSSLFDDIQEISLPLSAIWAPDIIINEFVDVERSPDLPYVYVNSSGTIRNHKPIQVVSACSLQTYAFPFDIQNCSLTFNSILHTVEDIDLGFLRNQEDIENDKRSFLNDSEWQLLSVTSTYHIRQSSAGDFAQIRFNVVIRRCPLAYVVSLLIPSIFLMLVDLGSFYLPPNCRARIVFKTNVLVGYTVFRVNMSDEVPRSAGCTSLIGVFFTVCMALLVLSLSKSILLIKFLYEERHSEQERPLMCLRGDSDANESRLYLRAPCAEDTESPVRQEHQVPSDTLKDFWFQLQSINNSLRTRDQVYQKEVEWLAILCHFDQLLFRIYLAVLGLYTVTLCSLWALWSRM
Put plainly: Binding affinity for 5-hydroxytryptamine 3 receptor from rat cortex using [3H]BRL-43694 as radioligand.

The target in experiment [8] is Sodium-dependent serotonin transporter (Rattus norvegicus, UniProt P31652).
Experiment [9] concerns 5-hydroxytryptamine receptor 2C (Sus scrofa). Put plainly: The compound was tested for their binding affinity towards 5-hydroxytryptamine 2C receptor from pig cortex using [3H]mesulergine as radioligand; Nonactive at 10 uM.
In experiment [10] the target is T2, 5-hydroxytryptamine receptor 1B. Briefly: The compound was tested for their binding affinity towards 5-hydroxytryptamine 1B receptor from rat striatum using [3H]5-HT as radioligand.
Experiment [11] deals with 5-hydroxytryptamine receptor 2C (Sus scrofa). Put plainly: The compound was tested for their binding affinity towards 5-hydroxytryptamine 2C receptor using [3H]mesulergine as radioligand; Nonactive at 10 uM.

T3 sequence (P14842 whole entry): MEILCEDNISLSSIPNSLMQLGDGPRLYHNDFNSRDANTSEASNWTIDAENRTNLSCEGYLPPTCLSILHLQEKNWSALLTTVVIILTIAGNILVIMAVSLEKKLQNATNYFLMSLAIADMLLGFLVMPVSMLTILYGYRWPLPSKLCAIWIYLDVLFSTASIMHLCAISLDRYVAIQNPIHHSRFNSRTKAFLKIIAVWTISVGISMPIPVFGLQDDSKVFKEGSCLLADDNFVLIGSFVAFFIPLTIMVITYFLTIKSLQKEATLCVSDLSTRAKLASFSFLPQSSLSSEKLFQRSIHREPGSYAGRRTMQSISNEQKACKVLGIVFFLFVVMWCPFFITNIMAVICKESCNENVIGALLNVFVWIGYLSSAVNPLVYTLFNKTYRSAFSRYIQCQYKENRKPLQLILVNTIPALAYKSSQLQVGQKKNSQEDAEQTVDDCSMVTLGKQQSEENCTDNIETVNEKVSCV
T2 sequence (P28564 whole entry): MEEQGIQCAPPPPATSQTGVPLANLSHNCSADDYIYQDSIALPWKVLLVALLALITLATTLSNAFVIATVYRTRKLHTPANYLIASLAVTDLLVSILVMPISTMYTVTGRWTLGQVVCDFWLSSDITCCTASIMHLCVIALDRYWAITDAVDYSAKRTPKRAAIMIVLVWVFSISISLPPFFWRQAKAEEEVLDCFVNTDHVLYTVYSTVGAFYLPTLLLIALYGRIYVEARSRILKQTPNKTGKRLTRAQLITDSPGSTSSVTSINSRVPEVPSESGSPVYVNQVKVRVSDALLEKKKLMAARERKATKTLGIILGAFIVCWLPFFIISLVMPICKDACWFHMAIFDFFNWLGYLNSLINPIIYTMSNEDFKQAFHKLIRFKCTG
Sodium-dependent serotonin transporter, sequence (P31652 whole entry): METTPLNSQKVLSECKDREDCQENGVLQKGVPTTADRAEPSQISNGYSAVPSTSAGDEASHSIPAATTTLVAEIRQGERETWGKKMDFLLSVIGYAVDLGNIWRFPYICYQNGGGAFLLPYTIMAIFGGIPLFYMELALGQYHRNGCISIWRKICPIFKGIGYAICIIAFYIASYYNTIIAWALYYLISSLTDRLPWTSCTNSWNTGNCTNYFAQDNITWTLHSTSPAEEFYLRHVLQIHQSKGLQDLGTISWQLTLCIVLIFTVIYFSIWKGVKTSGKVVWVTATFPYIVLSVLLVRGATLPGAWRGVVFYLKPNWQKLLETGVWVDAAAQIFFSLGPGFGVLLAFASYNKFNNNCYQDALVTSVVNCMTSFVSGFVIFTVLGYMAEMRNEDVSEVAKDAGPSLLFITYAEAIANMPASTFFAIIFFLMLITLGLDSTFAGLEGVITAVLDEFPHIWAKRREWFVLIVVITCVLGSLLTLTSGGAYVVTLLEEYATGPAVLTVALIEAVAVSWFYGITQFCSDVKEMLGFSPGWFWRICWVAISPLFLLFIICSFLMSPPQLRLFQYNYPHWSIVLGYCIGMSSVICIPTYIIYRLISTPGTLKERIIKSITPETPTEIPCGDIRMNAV
5-hydroxytryptamine receptor 4, sequence (O70528 whole entry): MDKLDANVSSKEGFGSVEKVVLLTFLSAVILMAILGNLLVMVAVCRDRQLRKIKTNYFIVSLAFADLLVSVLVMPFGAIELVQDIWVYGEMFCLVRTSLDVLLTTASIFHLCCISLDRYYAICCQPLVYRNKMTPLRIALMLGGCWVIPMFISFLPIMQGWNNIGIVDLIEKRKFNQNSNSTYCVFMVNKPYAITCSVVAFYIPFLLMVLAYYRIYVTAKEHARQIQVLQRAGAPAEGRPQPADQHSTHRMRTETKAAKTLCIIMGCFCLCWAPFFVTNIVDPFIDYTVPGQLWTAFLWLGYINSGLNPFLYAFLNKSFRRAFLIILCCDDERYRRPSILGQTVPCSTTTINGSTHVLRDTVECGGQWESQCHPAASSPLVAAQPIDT

One may read the Ki as the equilibrium dissociation constant of an inhibitor or competing ligand from its target. With `CCN1CCN(c2nc3ccccc3c3c2CCOc2ccccc2-3)CC1`, the Ki entry in experiment [1], in [2] and in experiment [3] was “Not Active” throughout.
For the molecule `CN1CCN(c2nc3ccccc3c3c2ccc2ccccc23)CC1`, the Ki result in [1] was “Not Active”; in experiment [4] it was “Not Active”; in experiment [5] it was 920 nM; in experiment [6] it was “Not Active”; in experiment [7], 9.5 nM; in experiment [8] it was “Not Active”. Moreover, the Ki result in experiment [9] is listed as “Not Active”.
On to `c1ccc2c(c1)nc(N1CCNCC1)c1oc3ccccc3c12`, for which the Ki result in experiment [1] is “Not Active”; in experiment [10], 280 nM; in [5] it was 1200 nM; in [7], 32.5 nM; in experiment [8], “Not Active”; in experiment [11] it was “Not Active”.
